# Assay results as given in US4418064A, “Chemotherapeutically active maytansinoids: treflorine, trenudine, and N-methyltrenudone” (priority 1982, dated 1983).
# Tests used:
# [1] = system: human epidermoid carcinoma of the mouth (KB); assay: cells; conditions: for IC50: Homo sapiens, KB, 72 h, read-out: ED50; for KB cytotoxicity compared with that reported for maytansine, maytanbutine and others: compared with Kupchan, J. Med. Chem. 21, Table II
# Description: The KB Cell Culture Screen used in guiding the above-described fractionations was conducted in accordance with the National Cancer Institute (NCI) Protocol 1.600 [Geran et al., Cancer Chemother. Rep., Part 3, 3: 17 (1972)] in which the effectiveness of the test compounds against cultivated cells of human epidermoid carcinoma of the mouth was evaluated. […] Such a dose is referred to as ED50 and activity is indicated for ED50 levels of ≤30 μg./ml. The smaller the ED50 level, the more cytotoxic the test material.
# [2] = system: B16 melanocarcinoma; assay: B1 system, B16 melanocarcinoma in mice, NCI Protocol 1.300; format: in vivo; conditions: i.p. once a day for 9 days, host sex M
# Description: The compounds were also evaluated in the B1 system against B16 melanocarcinoma in mice. This assay is conducted in accordance with the NCI Protocol 1.300 described in Geran et al., supra. Starting 24 hours after the tumor implantation, predetermined doses of the compound were injected intraperitoneally once a day for 9 days. The results are reported in Table VI below as the percent T/C.
# [3] = system: lymphocytic leukemia P388; assay: PS system, lymphocytic leukemia P388 in mice, NCI Protocol 1.200, survival; format: in vivo; conditions: i.p. once a day for 9 days
# Description: Another indication of fraction activity is the effectiveness in the PS system against lymphocytic leukemia P388 in mice. These assays are conducted according to the NCI Protocol 1.200 described in Geran et al., supra. Starting 24 hours after the tumor implantation, previously determined doses of each compound were injected intraperitoneally once a day for 9 days. Survival time of treated leukemic mice is compared to that of untreated mice (T/C×100). A T/C value of 100% indicates no activity. A T/C value greater than 100% means that the treated mice are surviving longer than the control mice. A compound giving a T/C value greater than 125% is indicative of activity as defined by the NCI Protocols, above.
# [4] = system: lymphocytic leukemia P388; conditions: cited from earlier work; for activity against lymphocytic leukemia P388: at the microgram per kilogram level, Wani et al.; for dosage level at which activity in the PS system was demonstrated: U.S. Pat. No. 4,313,946
# [5] = system: leukemia; conditions: Kupchan et al., J. Org. Chem. 42; cited from earlier work
# [6] = system: European corn borer; conditions: U.S. Pat. No. 4,315,929; cited from earlier work
# [7] = 4.00 μg./kg./inj., distilled water + alcohol
# [8] = 8.00 μg./kg./inj., distilled water + alcohol
# [9] = 16.00 μg./kg./inj., distilled water + alcohol
# [10] = 32.00 μg./kg./inj., distilled water + alcohol
# [11] = 4.00 μg./kg./inj., distilled water + alcohol, host sex M
# [12] = 8.00 μg./kg./inj., distilled water + alcohol, host sex M
# [13] = 16.00 μg./kg./inj., distilled water + alcohol, host sex M
# [14] = 32.00 μg./kg./inj., distilled water + alcohol, host sex M
compound,measurement,setting,value
COc1cc2cc(c1Cl)N1CC(=O)C(C)(O)C(=O)N(C)C(C)C(=O)O[C@@H](CC1=O)[C@]1(C)O[C@H]1[C@H](C)[C@@H]1C[C@@](O)(NC(=O)O1)[C@H](OC)/C=C/C=C(\C)C2OC (some centres unmarked) [N-methyltrenudone],IC50,[1],< 10 ng/mL
same,T/C (%),[2]; [7],109%
same,T/C (%),[2]; [8],93%
same,T/C (%),[2]; [9],111%
same,T/C (%),[2]; [10],95%
same,T/C (%),[3]; [11],153%
same,T/C (%),[3]; [12],108%
same,T/C (%),[3]; [13],toxic
same,T/C (%),[3]; [14],toxic
COc1cc2cc(c1Cl)N(C)C(=O)C[C@H](OC(=O)[C@H](C)N(C)C(=O)C(C)C)[C@]1(C)O[C@H]1[C@H](C)[C@@H]1C[C@@](O)(NC(=O)O1)[C@H](OC)/C=C/C=C(\C)C2OC(C)=O (some centres unmarked) [colubrinol acetate],activity against lymphocytic leukemia P388,[4],demonstrated activity
COc1cc2cc(c1Cl)N(C)C(=O)C[C@H](OC(=O)[C@H](C)N(C)C(=O)C(C)C)[C@]1(C)O[C@H]1[C@H](C)[C@@H]1C[C@@](O)(NC(=O)O1)[C@H](OC)/C=C/C=C(\C)C2O (some centres unmarked) [colubrinol],activity against lymphocytic leukemia P388,[4],demonstrated activity
C=C(C)C(=O)N(C)[C@@H](C)C(=O)O[C@H]1CC(=O)N(C)c2cc(cc(OC)c2Cl)C(OC)/C(C)=C/C=C/[C@@H](OC)[C@@]2(O)C[C@H](OC(=O)N2)[C@@H](C)[C@@H]2O[C@@]12C (some centres unmarked) [dehydrotrewiasine],dosage level at which activity in the PS system was demonstrated,[4],4 µg/kg
COc1cc2cc(c1Cl)N(C)C(=O)C[C@H](OC(=O)C(C)C)[C@]1(C)O[C@H]1[C@H](C)[C@@H]1C[C@@](O)(NC(=O)O1)[C@H](OC)/C=C/C=C(\C)C2OC(C)=O (some centres unmarked) [maytanbutacine],antileukemic activity,[5],antileukemic principle
COc1cc2cc(c1Cl)N1CCC(C)(O)C(=O)NC(C)C(=O)O[C@@H](CC1=O)[C@]1(C)O[C@H]1[C@H](C)[C@@H]1C[C@@](O)(NC(=O)O1)[C@H](OC)/C=C/C=C(\C)C2OC (some centres unmarked) [treflorine],IC50,[1],0.27 ng/mL
same,"KB cytotoxicity compared with that reported for maytansine, maytanbutine and others",[1],at least one order of magitude less
same,T/C (%),[2]; [7],130%
same,T/C (%),[2]; [8],160%
same,T/C (%),[2]; [9],162%
same,T/C (%),[2]; [10],178%
same,T/C (%),[3]; [11],150%
same,T/C (%),[3]; [12],144%
same,T/C (%),[3]; [13],157%
same,T/C (%),[3]; [14],150%
COc1cc2cc(c1Cl)N1CC(O)C(C)(O)C(=O)NC(C)C(=O)O[C@@H](CC1=O)[C@]1(C)O[C@H]1[C@H](C)[C@@H]1C[C@@](O)(NC(=O)O1)[C@H](OC)/C=C/C=C(\C)C2OC (some centres unmarked) [trenudine],IC50,[1],0.64 ng/mL
same,"KB cytotoxicity compared with that reported for maytansine, maytanbutine and others",[1],at least one order of magitude less
same,T/C (%),"[2]; 1.00 μg./kg./inj., distilled water + alcohol",137%
same,T/C (%),"[2]; 2.00 μg./kg./inj., distilled water + alcohol",147%
same,T/C (%),[2]; [7],145%
same,T/C (%),[2]; [8],176%
same,T/C (%),[2]; [9],197%
same,T/C (%),[2]; [10],toxic
same,T/C (%),"[3]; 2.00 μg./kg./inj., distilled water + alcohol, host sex F",144%
same,T/C (%),"[3]; 4.00 μg./kg./inj., distilled water + alcohol, host sex F",137%
same,T/C (%),"[3]; 8.00 μg./kg./inj., distilled water + alcohol, host sex F",146%
same,T/C (%),"[3]; 16.00 μg./kg./inj., distilled water + alcohol, host sex F",137%
same,T/C (%),"[3]; 32.00 μg./kg./inj., distilled water + alcohol, host sex F",toxic
"COc1cc2cc(c1Cl)N(C)C(=O)C[C@H](OC(=O)[C@H](C)N(C)C(=O)C(C)C)[C@]1(C)O[C@H]1[C@H](C)[C@@H]1C[C@@](O)(NC(=O)O1)[C@H](OC)/C=C/C=C(\C)C2OC (some centres unmarked) [trewiasine, reference compound]",ED50,"[1]; dose that inhibits growth to 50% of control, 3 days after drug addition",0.2 ng/mL
same,dosage level at which activity in the PS system was demonstrated,[4],4 µg/kg
same,control of the European corn borer,[6],effective in controlling the European corn borer
same,T/C (%),"[2]; 1.00 μg./kg./inj., vehicle Klucel",133%
same,T/C (%),"[2]; 2.00 μg./kg./inj., vehicle Klucel",140%
same,T/C (%),"[2]; 4.00 μg./kg./inj., vehicle Klucel",157%
same,T/C (%),"[2]; 8.00 μg./kg./inj., vehicle Klucel",185%
same,T/C (%),"[2]; 16.00 μg./kg./inj., vehicle Klucel",172%
same,T/C (%),"[2]; 32.00 μg./kg./inj., vehicle Klucel",183%
same,T/C (%),"[3]; 4.00 μg./kg./inj., vehicle Klucel, host sex F",163%
same,T/C (%),"[3]; 8.00 μg./kg./inj., vehicle Klucel, host sex F",140%
same,T/C (%),"[3]; 16.00 μg./kg./inj., vehicle Klucel, host sex F",154%
same,T/C (%),"[3]; 32.00 μg./kg./inj., vehicle Klucel, host sex F",128%
same,T/C (%),"[3]; 64.00 μg./kg./inj., vehicle Klucel, host sex F",91%
